Where “and” joins values, the source holds several entries; their conditions need not be identical. Equal values may be shown once. Read-outs that look alike come from different tables or passages of the source.

In assay [1] the target is T1, phosphorylated VEGF-R2Δ50 (FLVK-P) (Homo sapiens, UniProt P35968, DEL940-989/E990V).
T1 construct: VEGF-R2Δ50 contains residues 806-939 and 990-1171; made in house; host or cells: baculovirus/insect cells
As to the kind of experiment: VEGF-R2 coupled spectrophotometric (FLVK-P) assay. The assay is classed as biochemical. To be noted: for Ki: spectrophotometric assay. An outline of the steps: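 Baculovirus-expressed human VEGF-R2Δ50 (residues 806-939/990-1171, E990V) was autophosphorylated with 3 mM ATP, 40 mM MgCl2 for 2 h at 4° C. ADP formation was coupled via PK/LDH to NADH oxidation, read at 340 nm, with 5.1 mM poly(E4Y1), 1 mM ATP, 25 mM MgCl2, Hepes pH 7.5. Ki came from activity across compound concentrations.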

The target of another assay is CDK2/Cyclin A complex (Homo sapiens, UniProt P24941). Nature of the assay: CDK2/Cyclin A assay. The assay is classed as biochemical. To be noted: Table 2. An outline of the steps: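 Radiometric assay: 150 nM CDK2/cyclin A (insect-cell CDK2, truncated cyclin A) phosphorylates His-tagged Rb fragment (residues 386-928) with 25 μM ATP plus [32P]ATP, pH 7.4 HEPES, 2% DMSO, 30 °C for 20 min. Filter-captured product counted by phosphorimager; apparent Ki from competitive or tight-binding inhibition fits.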

In the next assay the target is T2, CDK4/Cyclin D3 complex (Homo sapiens, UniProt P11802).
T2 construct: made in house; host or cells: insect cells co-infected with baculovirus vectors
T2 sequence (P11802 whole entry): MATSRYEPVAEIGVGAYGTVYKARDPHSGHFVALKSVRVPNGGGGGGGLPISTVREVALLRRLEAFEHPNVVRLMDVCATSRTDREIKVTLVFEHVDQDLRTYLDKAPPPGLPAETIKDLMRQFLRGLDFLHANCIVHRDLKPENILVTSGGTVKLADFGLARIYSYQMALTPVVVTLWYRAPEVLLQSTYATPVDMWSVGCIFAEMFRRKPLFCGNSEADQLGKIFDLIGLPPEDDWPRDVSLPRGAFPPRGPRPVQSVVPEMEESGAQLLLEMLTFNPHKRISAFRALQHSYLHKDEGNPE
T2 sequence (P30281 whole entry partner): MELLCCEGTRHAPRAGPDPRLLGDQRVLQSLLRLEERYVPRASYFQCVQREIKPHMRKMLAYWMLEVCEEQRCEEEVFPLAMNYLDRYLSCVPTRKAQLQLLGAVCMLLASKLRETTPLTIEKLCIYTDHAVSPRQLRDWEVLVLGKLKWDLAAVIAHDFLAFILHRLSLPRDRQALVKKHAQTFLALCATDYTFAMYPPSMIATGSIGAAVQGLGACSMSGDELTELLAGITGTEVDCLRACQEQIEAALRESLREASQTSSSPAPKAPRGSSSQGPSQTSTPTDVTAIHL
As to the kind of experiment: CDK4/Cyclin D assay. The assay is classed as biochemical. To be noted: Table 2. Summed up: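 Insect-cell-expressed CDK4/cyclin D3 (50 nM) phosphorylating His-tagged Rb fragment (residues 386-928) with 25 μM [^32P]ATP in HEPES pH 7.4, MgCl2, 2% DMSO; 20 min at 30 °C, EDTA stop. Filter-captured 32P by phosphorimager; apparent Ki from competitive or tight-binding inhibition fits.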

In a further assay the target is T3, CHK1 (Homo sapiens, UniProt O14757).
T3 sequence (O14757 1-476): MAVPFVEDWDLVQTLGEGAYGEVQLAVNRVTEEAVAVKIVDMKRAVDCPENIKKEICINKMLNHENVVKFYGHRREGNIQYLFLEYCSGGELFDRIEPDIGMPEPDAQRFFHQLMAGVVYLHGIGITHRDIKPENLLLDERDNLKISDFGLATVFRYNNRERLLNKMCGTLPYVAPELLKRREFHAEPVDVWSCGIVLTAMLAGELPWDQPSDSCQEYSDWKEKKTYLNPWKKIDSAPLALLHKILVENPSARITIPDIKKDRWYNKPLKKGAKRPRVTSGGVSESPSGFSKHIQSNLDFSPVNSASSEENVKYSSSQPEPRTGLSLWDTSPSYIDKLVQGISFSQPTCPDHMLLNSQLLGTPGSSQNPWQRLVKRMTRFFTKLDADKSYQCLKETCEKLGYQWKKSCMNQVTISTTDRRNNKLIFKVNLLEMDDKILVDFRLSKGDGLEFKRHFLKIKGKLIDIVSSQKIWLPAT
As to the kind of experiment: CHK1 high-throughput screening. The format is biochemical. To be noted: for inhibition at 20 µM: read-out: % inhibition @ 20 μM, Table 4, repeated entries per example; for % inhibition @ 20 μM: Table 4, repeated entries per example.

In assay [2] the target is T4, phosphorylated VEGF-R2Δ50 (Homo sapiens, UniProt P35968, DEL940-989/E990V).
T4 construct: VEGF-R2Δ50 contains residues 806-939 and 990-1171; made in house; host or cells: baculovirus/insect cells
T4 sequence (P35968 with tags, fused parts or gaps DEL940-989/E990V limits assumed): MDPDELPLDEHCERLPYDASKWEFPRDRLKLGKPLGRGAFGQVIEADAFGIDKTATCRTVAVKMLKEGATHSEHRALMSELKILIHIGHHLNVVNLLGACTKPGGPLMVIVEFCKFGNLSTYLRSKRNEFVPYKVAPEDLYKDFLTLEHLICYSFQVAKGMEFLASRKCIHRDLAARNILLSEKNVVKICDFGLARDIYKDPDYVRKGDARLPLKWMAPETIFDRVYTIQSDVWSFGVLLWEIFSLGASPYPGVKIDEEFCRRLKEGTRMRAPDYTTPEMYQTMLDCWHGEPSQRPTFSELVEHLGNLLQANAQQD
As to the kind of experiment: VEGF-R2 ELISA assay. The format is biochemical. To be noted: * determined with ELISA assay, read-out: FLVK-P Ki. The source says:
VEGF-R2 Construct for Assay: This construct determines the ability of a test compound to inhibit tyrosine kinase activity. A construct (VEGF-R2Δ50) of the cytosolic domain of human vascular endothelial growth factor receptor 2 (VEGF-R2) lacking the 50 central residues of the 68 residues of the kinase insert domain was expressed in a baculovirus/insect cell system. Of the 1356 residues of full-length VEGF-R2, VEGF-R2Δ50 contains residues 806-939 and 990-1171, and also one point mutation (E990V) within the kinase insert domain relative to wild-type VEGF-R2. Autophosphorylation of the purified construct was performed by incubation of the enzyme at a concentration of 4 μM in the presence of 3 mM ATP and 40 mM MgCl2 in 100 mM Hepes, pH 7.5, containing 5% glycerol and 5 mM DTT, at 4° C. for 2 h. […] See Parast et al., Biochemistry, 37, 16788-16801 (1998).
Formation of phosphogastrin was monitored using biotinylated gastrin peptide (1-17) as substrate. Biotinylated phosphogastrin was immobilized using streptavidin coated 96-well microtiter plates followed by detection using anti-phosphotyrosine-antibody conjugated to horseradish peroxidase. The activity of horseradish peroxidase was monitored using 2,2′-azino-di-[3-ethylbenzathiazoline sulfonate(6)]diammonium salt (ABTS). Typical assay solutions contained: 2 μM biotinylated gastrin peptide; 5 mM DTT; 20 μM ATP; 26 mM MgCl2; and 2 mM MnCl2 in 200 mM Hepes, pH 7.5. The assay was initiated with 0.8 nM of phosphorylated VEGF-R2Δ50. Horseradish peroxidase activity was assayed using ABTS, 10 mM. The horseradish peroxidase reaction was quenched by addition of acid (H2SO4), followed by absorbance reading at 405 nm. Ki values were determined by measuring enzyme activity in the presence of varying concentrations of test compounds. The data were analyzed using Enzyme Kinetic and Kaleidagraph software.
Background: ELISA stands for enzyme-linked immunosorbent assay.

Assay [3] relates to human umbilical vein endothelial cells (HUVEC). Nature of the assay: HUVEC proliferation assay. The format is cell-based. To be noted: Homo sapiens, HUVEC, Table 1. Summed up:
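Exponentially growing HUVEC were serum-starved 24 h (F12K + 1% FBS), pre-treated 1 h with compound (0.1% DMSO final), then stimulated with 6 ng/ml VEGF. Proliferation was read 72 h later by MTT reduction (A595). IC50 came from seven 0.5-log concentrations in triplicate; screens gave % inhibition relative to VEGF-only and starved wells.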

The test system of assay [4] is lung cancer cells (line MV522). As to the kind of experiment: Cancer cell proliferation (MV522) assay. The format is cell-based. As to conditions: MV522, Table 1. On the procedure:
Cancer Cell Proliferation (MV522) Assay
The protocol for assessing cellular proliferation in cancer cells is similar to that used for assessments in HUVEC cells. Two thousand lung cancer cells (line MV522, acquired from American Tissue Cultural Collection) were seeded in growth media (RPMI1640 medium supplemented with 2 mM glutamine and 10% FBS). Cells are allowed to attach for 1 day prior to addition of test agents and/or vehicles. Cells are treated simultaneously with the same test agents used in the HUVEC assay. Cellular proliferation is quantified by MTT dye reduction assay 72 hours after exposure to test agents. The total length of the assay is 4 days vs. 5 for HUVEC cells because MV522 cells are not exposed to starvation medium.

T1 sequence (P35968 with tags, fused parts or gaps DEL940-989/E990V limits assumed): as above

Take `CNc1nc(N)c(-c2nc(-c3cccc(O)c3)cs2)s1` [A(30), 3-(4′-Amino-2′-methylamino-[2,5′]bithiazolyl-4-yl)-phenol]: the Ki (in general, a dissociation constant, usually derived from enzyme kinetics or from competition with a known ligand) in assay [1] (Table 2) came out at 0.11 µM; on CDK2/Cyclin A complex, 4.8 µM; at CDK4/Cyclin D3 complex it was 22 µM. For the same molecule, the inhibition – broadly, the relative decrease from the control value, in per cent – at 20 µM at CHK1 was 3.4%.
Take `Cc1cc(C)cc(Nc2nc(N)c(-c3nc(-c4cccc(NC(=O)c5ccccc5)c4)cs3)s2)c1` [A(42), N-{3-[4′-Amino-2′-(3,5-dimethylphenylamino)-[2,5′]bithiazolyl-4-yl]-phenyl}-benzamide]: in assay [1] (Table 1), the Ki turned out to be 0.0073 µM. Besides, on CHK1, the inhibition at 20 µM is -0.1%.
As for `COc1cc(Nc2nc(N)c(C3=NCC(C)O3)s2)cc(OC)c1OC` (racemic) [I(19), (R/S)-5-(5-Methyl-4,5-dihydro-oxazol-2-yl)-N^2-(3,4,5-trimethoxy-phenyl)-thiazole-2,4-diamine], the Ki in assay [2] (Table 2) is 34 µM.
Same read-out and setting: the value for `COc1cc(Nc2nc(N)c(C3=N[C@@H](C)C(c4ccccc4)O3)s2)cc(OC)c1OC` (stereo in doubt) [I(16), 5-(4-Methyl-5-phenyl-4,5-dihydro-oxazol-2-yl)-N^2-(3,4,5-trimethoxy-phenyl)-thiazole-2,4-diamine] was 178 µM.
As to `Nc1nc(Nc2cccc(C(=O)O)c2)sc1-c1nc(-c2cccc(NC(=O)c3ccccc3)c2)cs1` [A(50), 3-[4′-Amino-4-(3-benzoylamino-phenyl)-[2,5′]bithiazolyl-2′-ylamino]-benzoic acid], in assay [1] (Table 1), the Ki was 0.0089 µM. In addition, the IC50 (as a rule, the concentration at which inhibition is half-maximal) is above 0.7 µM in assay [3] and above 10 µM in assay [4]. Further, the inhibition at 20 µM on CHK1 is 30.1%.
Turning to `COC(=O)Nc1cccc(-c2csc(-c3sc(Nc4cc(OC)c(OC)c(OC)c4)nc3N)n2)c1` [D(6), {3-[4′-Amino-2′-(3,4,5-trimethoxy-phenylamino)-[2,5′]bithiazolyl-4-yl]-phenyl}-carbamic acid methyl ester], the Ki in assay [2] (Table 1) was 0.025 µM.
Regarding `COc1cc(Nc2nc(N)c(-c3nc(-c4cccc(NC(=O)C(F)F)c4)cs3)s2)cc(OC)c1OC` [D(14), N-{3-[4′-Amino-2′-(3,4,5-trimethoxy-phenylamino)-[2,5′]bithiazolyl-4-yl]-phenyl}-2,2-difluoro-acetamide], the Ki in assay [2] (Table 1) was determined as 0.12 µM.
Still for that read-out and setting: the value for `COc1cc(Nc2nc(N)c(-c3nc(-c4cccc(NC(=O)C(F)(F)F)c4)cs3)s2)cc(OC)c1OC` [D(13), N-{^3-[4′-Amino-2′-(3,4,5-trimethoxy-phenylamino)-[2,5′]bithiazolyl-4-yl]-phenyl}-2,2,2-trifluoro-acetamide] was 0.12 µM; that for `COc1cc(Nc2nc(N)c(-c3nc(-c4cccc(NC(=O)OC(C)C)c4)cs3)s2)cc(OC)c1OC` [D(10), {3-[4′-Amino-2′-(3,4,5-trimethoxy-phenylamino)-[2,5′]bithiazolyl-4-yl]-phenyl}-carbamic acid isopropyl ester] was 0.056 µM.
For `Nc1nc(Nc2ccc(S(N)(=O)=O)cc2)sc1-c1nc(-c2ccc(-c3ccccc3)cc2)cs1` [A(70), 4-(4′-Amino-4-biphenyl-4-yl-[2,5′]bithiazolyl-2′-ylamino)-benzenesulfonamide], on CDK4/Cyclin D3 complex (at 100 (printed 100 or 100 μM)), the inhibition at 100 µM was below 0%. The inhibition at 20 µM at CHK1 came out at 3.8%.
Turning to `Nc1nc(Nc2ccc(S(=O)(=O)N3CCCCC3)cc2)sc1-c1nc(-c2cccc(NC(=O)c3ccccc3)c2)cs1` [A(55), 4-(4′-Amino-4-(3-benzamidophenyl)-[2,5′]bithiazolyl-2′-ylamino)-phenylsulfonylpiperidine], the inhibition at 20 µM on CHK1 is 0.1%.
`Nc1nc(Nc2ccc(S(N)(=O)=O)cc2)sc1-c1nc(-c2ccc(Cl)c(O)c2)cs1` [A(69), 4-[4′-Amino-4-(4-chloro-3-hydroxy-phenyl)-[2,5′]bithiazolyl-2′-ylamino]-benzenesulfonamide]: the inhibition constant Ki on CDK2/Cyclin A complex turned out to be 4 µM. Further, at CDK4/Cyclin D3 complex, the Ki amounted to 7.2 µM. In addition, at CHK1, the “% inhibition @ 20 μM” value is 2.7% and 3.8%; the inhibition at 20 µM was determined as 4.8%.
As for `CCN(CC)CCCNc1nc(N)c(-c2nc(-c3cccc(NC(=O)c4ccccc4)c3)cs2)s1` [A(37), N-{3-[4′-Amino-2′-(3-diethylamino-propylamino)-[2,5′]bithiazolyl-4-yl]-phenyl}-benzamide], the inhibition at 20 µM on CHK1 stood at 16%.
As to `Nc1nc(NCCc2ccccc2)sc1-c1nc(-c2cccc(NC(=O)c3ccccc3)c2)cs1` [A(38), N-[3-(4′-Amino-2′-phenethylamino-[2,5′]bithiazolyl-4-yl)-phenyl]-benzamide], in assay [1] (Table 1, at 0.05, concentration unit not printed (head nM)), the “FLVK-P % inhibition @ 0.05” value is recorded as 7% @. At CHK1, the “% inhibition @ 20 μM” value is 9.8% and the inhibition at 20 µM is 9.1%.
As for `COc1cc(Nc2nc(N)c(-c3nc(-c4cccc(C(=O)NCc5ccccc5)c4)cs3)s2)cc(OC)c1OC` [A(32), 3-[4′-Amino-2′-(3,4,5-trimethoxy-phenylamino)-[2,5′]bithiazolyl-4-yl]-N-benzyl-benzamide], the inhibition at 20 µM on CHK1 is -3.8%.
Still for that read-out and setting: the value for `COc1ccc(Nc2nc(N)c(-c3nc(-c4cccc(NC(=O)c5ccccc5)c4)cs3)s2)cc1` [A(52), 4-(4′-Amino-4-(3-benzamidophenyl)-[2,5′]bithiazolyl-2′-ylamino)-methoxyphenyl] was 2%.
In the case of `Nc1nc(Nc2ccc([N+](=O)[O-])cc2)sc1-c1nc(-c2cccc(NC(=O)c3ccccc3)c2)cs1` [A(56), 4-(4′-Amino-4-(3-benzamidophenyl)-[2,5′]bithiazolyl-2′-ylamino)-nitrophenyl], the affinity in assay [1] (Table 1), expressed as Ki, was 0.084 µM. Also, the inhibition at 20 µM on CHK1 was -2.9%.
As for `COc1cc(Nc2nc(N)c(-c3nc(-c4cccc(C(=O)NCCc5ccccc5)c4)cs3)s2)cc(OC)c1OC` [A(31), 3-[4′-Amino-2′-(3,4,5-trimethoxy-phenylamino)-[2,5′]bithiazolyl-4-yl]-N-phenethyl-benzamide], on CHK1, the inhibition at 20 µM amounted to 2.5%.

For the origin of these results see patent publication US6620828B2, “Thiazole compounds and pharmaceutical compositions for inhibiting protein kinases and methods for their use” (Agouron Pharmaceuticals, Inc., priority 1999, dated 2003).
